Reference: patent publication US6706663B2, “Herbicidal 3-heterocyclic substituted benzisothiazole and benzisoxazole compounds” (Wyeth, priority 2000, dated 2004)

What was measured:
[1] = test system: TRZAWR (Wheat, Winter, cv Riband); assay: Postemergence herbicidal evaluation; format: in vivo, Triticum aestivum
Method in brief: (§1)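 Seedlings grown about two weeks in flats, sprayed, then kept under standard greenhouse care. Rated visually 4–5 weeks after treatment on a 0–9 scale (stand, vigour, malformation, size, chlorosis, overall appearance) relative to untreated control; repeat tests averaged.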

ZEAMX (Corn, Field) = assay: Preemergence herbicidal evaluation; format: in vivo, Zea mays, L.; details: preemergence, rated 4-5 weeks after treatment
[2] = test system: IPOHE (Ipomoea hederacea); assay: Postemergence herbicidal evaluation; format: in vivo, (L.) Jacq.
Method in brief: as §1

[3] = test system: ECHCG (Echinochloa crus-galli); assay: Preemergence herbicidal evaluation; format: in vivo, (L.) Beau; details: preemergence, rated 4-5 weeks after treatment
Method in brief: (§2)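 Seeds planted in potting soil cups and sprayed preemergence with aqueous acetone compound solution. Greenhouse-grown; rated 4–5 weeks after treatment on a 0-9 visual scale (stand, vigor, malformation, size, chlorosis, appearance) versus control.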

SETVI (Setaria viridis) [4] = assay: Preemergence herbicidal evaluation; format: in vivo, (L.) Beau; details: preemergence, rated 4-5 weeks after treatment
Method in brief: as §2

CYPIR (Cyperus iria) = assay: Flooded paddy, preemergence weed control; format: in vivo; details: rated 3-4 weeks after treatment, 0-9 rating scale
Method in brief: (§3)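 Seeds or propagating organs were sown in the top 0.5 cm of silt loam soil, flooded, and the water kept 1.5 to 3 cm above the soil surface throughout. Plants were grown in the greenhouse and rated visually on a 0-9 scale against a control.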

[5] = test system: ECHORC (Echinochloa oryzoides); assay: Flooded paddy, preemergence weed control; format: in vivo, Echinochloa oryzoides (Ard.) Fritsch.; details: rated 3-4 weeks after treatment, 0-9 rating scale
Method in brief: as §3

[6] = test system: MOOVA (Monochoria vaginalis); assay: Flooded paddy, preemergence weed control; format: in vivo, Presl.; details: rated 3-4 weeks after treatment, 0-9 rating scale
Method in brief: as §3

[7] = test system: GLXMAW (Soybean, Williams); assay: Preemergence herbicidal evaluation; format: in vivo, Glycine max, (L.) Merr. cv Williams; details: preemergence, rated 4-5 weeks after treatment
SETVI (Setaria viridis) [8] = assay: Postemergence herbicidal evaluation; format: in vivo, (L.) Beau
Method in brief: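 ~2-wk seedlings; spray 0.0040–1.000 kg/ha in 50/50 acetone/water + 0.5% TWEEN 20, 40 psi nozzle. Greenhouse hold; visual 0–9 rating vs control at 4–5 wk; multiple tests averaged.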

Row | SMILES | Postemergence herbicidal rating, TRZAWR ([1]; rate 0.0320 kg/ha) | Postemergence herbicidal rating, TRZAWR ([1]; rate 0.0620 kg/ha) | Postemergence herbicidal rating, TRZAWR ([1]; rate 0.1250 kg/ha) | ZEAMX preemergence herbicidal rating (ZEAMX (Corn, Field); Rate 0.0620 kg/ha) | ZEAMX preemergence herbicidal rating (ZEAMX (Corn, Field); Rate 0.1250 kg/ha) | ZEAMX preemergence herbicidal rating (ZEAMX (Corn, Field); Rate 0.2500 kg/ha) | Postemergence herbicidal rating, IPOHE ([2]; rate 0.0320 kg/ha) | Postemergence herbicidal rating, IPOHE ([2]; rate 0.0620 kg/ha) | Postemergence herbicidal rating, IPOHE ([2]; rate 0.1250 kg/ha) | ECHCG preemergence herbicidal rating ([3]; Rate 0.0620 kg/ha) | ECHCG preemergence herbicidal rating ([3]; Rate 0.1250 kg/ha) | ECHCG preemergence herbicidal rating ([3]; Rate 0.2500 kg/ha) | SETVI preemergence herbicidal rating (SETVI (Setaria viridis) [4]; Rate 0.0620 kg/ha) | SETVI preemergence herbicidal rating (SETVI (Setaria viridis) [4]; Rate 0.1250 kg/ha) | SETVI preemergence herbicidal rating (SETVI (Setaria viridis) [4]; Rate 0.2500 kg/ha) | herbicidal rating, CYPIR (CYPIR (Cyperus iria); rate 0.0320 kg/ha) | herbicidal rating, CYPIR (CYPIR (Cyperus iria); rate 0.1250 kg/ha) | herbicidal rating, ECHORC ([5]; rate 0.0320 kg/ha) | herbicidal rating, ECHORC ([5]; rate 0.1250 kg/ha) | herbicidal rating, MOOVA ([6]; rate 0.0320 kg/ha) | also measured
1 | Cn1c(C(F)(F)F)cc(=O)n(-c2ccc3snc(-c4ccccn4)c3c2)c1=O [Compound 9, 1-methyl-3-[3-(2-pyridyl)-1,2-benzisothiazol-5-yl]-6-(trifluoromethyl)uracil] | 4.0 | 4.5 | 6.0 | 6.3 | 6.7 | 7.7 | 9.0 | 9.0 | 9.0 | 8.3 | 9.0 | 9.0 | 9.0 | 9.0 | 9.0 | 7.0 | 9.0 | 7.0 | 9.0 | 9.0 | herbicidal rating, CYPIR (CYPIR (Cyperus iria); rate 0.0080 kg/ha): 8.0; herbicidal rating, ECHORC ([5]; rate 0.0080 kg/ha): 4.0; herbicidal rating, MOOVA ([6]; rate 0.0080 kg/ha): 8.0; herbicidal rating, MOOVA ([6]; rate 0.1250 kg/ha): 9.0; GLXMAW preemergence herbicidal rating ([7]; Rate 0.0620 kg/ha): 4.0; GLXMAW preemergence herbicidal rating ([7]; Rate 0.1250 kg/ha): 8.3; GLXMAW preemergence herbicidal rating ([7]; Rate 0.2500 kg/ha): 8.7; Postemergence herbicidal rating, SETVI (SETVI (Setaria viridis) [8]; rate 0.0320 kg/ha): 8.0; Postemergence herbicidal rating, SETVI (SETVI (Setaria viridis) [8]; rate 0.0620 kg/ha): 9.0; Postemergence herbicidal rating, SETVI (SETVI (Setaria viridis) [8]; rate 0.1250 kg/ha): 9.0
2 | COc1ccsc1-c1nsc2ccc(-n3c(=O)cc(C(F)(F)F)n(C)c3=O)cc12 [Compound 10, 3-[3-(3-methoxy-2-thienyl)-1,2-benzisothiazol-5-yl]-1-methyl-6-(trifluoromethyl)uracil] | 2.5 | 2.8 | 4.0 | 4.0 | 6.5 | 7.0 | 2.0 | 2.0 | 7.0 | 0.5 | 5.0 | 9.0 | 7.5 | 9.0 | 9.0 | 4.0 | 9.0 | 0.0 | 5.0 | 9.0 | herbicidal rating, MOOVA ([6]; rate 0.1250 kg/ha): 9.0; GLXMAW preemergence herbicidal rating ([7]; Rate 0.0620 kg/ha): 0.5; GLXMAW preemergence herbicidal rating ([7]; Rate 0.1250 kg/ha): 1.0; GLXMAW preemergence herbicidal rating ([7]; Rate 0.2500 kg/ha): 2.5; Postemergence herbicidal rating, SETVI (SETVI (Setaria viridis) [8]; rate 0.0320 kg/ha): 0.0; Postemergence herbicidal rating, SETVI (SETVI (Setaria viridis) [8]; rate 0.0620 kg/ha): 0.5; Postemergence herbicidal rating, SETVI (SETVI (Setaria viridis) [8]; rate 0.1250 kg/ha): 0.0
3 | Cc1nnc(-c2nsc3ccc(-n4c(=O)cc(C(F)(F)F)n(C)c4=O)cc23)s1 [Compound 17, 1-methyl-3-[3-(5-methyl-1,3,4-thiadiazol-2-yl)-1,2-benzisothiazol-5-yl]-6-(trifluoromethyl)uracil] | 3.0 | 3.0 | 3.0 | 6.0 | 7.0 | 8.0 | 9.0 | 9.0 | 9.0 | 0.0 | 1.0 | 5.0 | 0.0 | 9.0 | 9.0 | 3.5 | 7.0 | 3.0 | 6.0 | 9.0 | Postemergence herbicidal rating, TRZAWR ([1]; rate 0.2500 kg/ha): 3.5; Postemergence herbicidal rating, IPOHE ([2]; rate 0.2500 kg/ha): 9.0; herbicidal rating, CYPIR (CYPIR (Cyperus iria); rate 0.0080 kg/ha): 0.0; herbicidal rating, ECHORC ([5]; rate 0.0080 kg/ha): 0.0; herbicidal rating, MOOVA ([6]; rate 0.0080 kg/ha): 6.0; herbicidal rating, MOOVA ([6]; rate 0.1250 kg/ha): 9.0; GLXMAW preemergence herbicidal rating ([7]; Rate 0.0620 kg/ha): 0.0; GLXMAW preemergence herbicidal rating ([7]; Rate 0.1250 kg/ha): 3.0; GLXMAW preemergence herbicidal rating ([7]; Rate 0.2500 kg/ha): 5.0; Postemergence herbicidal rating, SETVI (SETVI (Setaria viridis) [8]; rate 0.0320 kg/ha): 0.0; Postemergence herbicidal rating, SETVI (SETVI (Setaria viridis) [8]; rate 0.0620 kg/ha): 0.0; Postemergence herbicidal rating, SETVI (SETVI (Setaria viridis) [8]; rate 0.1250 kg/ha): 3.0; Postemergence herbicidal rating, SETVI (SETVI (Setaria viridis) [8]; rate 0.2500 kg/ha): 7.0
